Source: article PMC4055232 (Malaria Journal, 2014)
Like-named read-outs stand apart in the source and are kept apart here. Marks after values point to notes of the source that are not given here.

Assays:
[1] = Pharmacokinetics of probe drug cocktail (bupropion, midazolam) and their metabolites before and after QHS-PQ; type: in vivo, human; conditions: for Geometric mean ratio (90% CI) of AUC 0-t /dose / Geometric mean ratio (90% CI) of C max / Geometric mean ratio (90% CI) of CL/F / Geometric mean ratio (90% CI) of MRT: 2-day (after QHS-PQ) versus 1-day (day -14); for AUC 0-t /dose: mean ± sd; for T max / Tmax: value (range)
Description: The chromatography was performed at 22°C. The mobile phase consisted of B (acetonitrile) and A (0.1% formic acid in water), which increased linearly from 20% B to 90% B during 7 min before column re-equilibration at a flow rate of 0.3 mL/min.
Plasma samples were subjected to a protein precipitation extraction process. A 100 μL aliquot of human plasma was mixed with 25 μL of acetonitrile and 200 μL of IS (1 μM of alprazolam, prepared in acetonitrile). The mixture was mixed and centrifuged at 3,000 g for 10 min. Aliquots (20 μL) of the solution were injected onto LC-MS analysis. […] This mixture was treated as above. […] Plasma samples were diluted with blank plasma and reanalysed when the concentration of any analyte was higher than the upper limit of quantification.
Venous blood samples (2 mL) for analysis of probe drugs and their metabolites were taken from an indwelling intravenous catheter at 0, 0.25, 0.75, 1.5, 2.0, 3.0, 4.0, 5.0, 7.0, 11.0, 24.0, 36.0, and 48.0 hours.
(§1) The peak plasma concentration (Cmax) and time-to-peak concentration (Tmax) were obtained from experimental observations. The other pharmacokinetic parameters were analysed by non-compartmental model using the program TOPFIT (version 2.0; Thomae GmbH, Germany). The area under the plasma concentration-time curve (AUC o-t ) was calculated using the linear trapezoidal rule to approximately the last point. The mean residence time (MRT) was obtained by dividing the area under the first moment-time curve (AUMC 0-t ) by the area under the curve (AUC 0-t ). Total oral body clearance (CL/F) was calculated as dose/AUC 0-t .
(§2) Results were expressed as mean ± SD. The two-tailed t-test was used for paired comparison of the pharmacokinetic parameters between the single dose and multiple doses after logarithmic transformation. Geometric mean ratios with 90% confidence intervals (CIs) were calculated after log transformation of within-subject data. The comparison of Tmax for the different treatment groups was performed using the Wilcoxon signed-rank test. The acceptable level of significance was established at P < 0.05 or P < 0.01.

CAR1/3 = conditions: cited from earlier work
[2] = Pharmacokinetics of QHS and its phase I/II metabolites in plasma after oral QHS-PQ (Artequick); conditions: for AUC 0-t /dose / Cmax / MRT / CL/F: mean ± sd; for Cmax / MRT / Tmax: in vivo; for Cmax: C max; for Tmax: T max
Description: The chromatography was performed at 22°C. The mobile phase consisted of acetonitrile and 5 mM aqueous ammonium acetate containing 0.1% (v/v) formic acid, delivered at a flow rate of 0.35 mL/min. The gradient chromatographic conditions were shown in the previous report. The autosampler was set at 4°C.
Plasma samples were subjected to a protein precipitation extraction process, which was performed on ice. A 100 μL aliquot of human plasma was mixed with 25 μL of acetonitrile and 200 μL of IS (1 μM of ARM, prepared in acetonitrile). The mixture was mixed and centrifuged at 3,000 g for 10 min. Aliquots (20 μL) of the solution were injected onto LC-MS analysis. […] This mixture was treated as above.
Plasma was separated by centrifugation at 3,000 g for 10 min at 4°C. The plasma was stored at -80°C until analysis.
as §1, §2

[3] = Bench-top stability of QC samples in human plasma on ice; type: in vitro ADME; conditions: human plasma on ice for at least 2 hours; difference < 15%
PXR = conditions: cited from earlier work
[4] = cited from earlier work
[5] = listed as '1-day': oral probe cocktail (bupropion 75 mg, midazolam 15 mg) on day -14, before QHS-PQ
[6] = listed as '1-day': probe cocktail before QHS-PQ (day -14)
[7] = listed as '2-day': probe cocktail 1 hour after second oral dose of QHS-PQ (day 2)
[8] = listed as '2-day': probe cocktail after second dose of QHS-PQ
[9] = human, plasma, oral, row '1-day': probe cocktail before QHS-PQ (day -14)
[10] = human, plasma, oral, row '1-day': probe cocktail before QHS-PQ (day -14), read-out: CL/F (converted)
[11] = human, plasma, oral, row '1-day': probe cocktail before QHS-PQ (day -14), read-out: MRT
[12] = human, plasma, oral, row '2-day': probe cocktail after second dose of QHS-PQ
[13] = human, plasma, oral, row '2-day': probe cocktail after second dose of QHS-PQ, read-out: CL/F (converted)
[14] = human, plasma, oral, row '2-day': probe cocktail after second dose of QHS-PQ, read-out: MRT
[15] = human, po, 2-day oral QHS-PQ, value (range)

For OCc1ncc2n1-c1ccc(Cl)cc1C(c1ccccc1F)=NC2 [OH-MDZ, α-hydroxymidazolam], the “Geometric mean ratio (90% CI) of AUC 0-t /dose” value [1] was 4.99 (4.66, 5.33)**, the “Geometric mean ratio (90% CI) of C max” value [1] was 2.95 (2.44, 3.56)** and the “Geometric mean ratio (90% CI) of CL/F” value [1] was 0.19 (0.18, 0.21)**. The “Geometric mean ratio (90% CI) of MRT” value [1] was 1.14 (1.01, 1.28), the “AUC 0-t /dose” value [1, 5] was 0.32 ± 0.09 kg·h/L and the CL/F [1, 6] was 55.2 ± 14 mL/min/kg. The Cmax [1, 6] was 82.3 ± 50.3 nM, the MRT [1, 6] was 3.7 ± 1.0 h and the T max [1, 6] was 1.1 (0.3, 2.0) h. For the same compound, the “AUC 0-t /dose” value [1, 7] was 1.60 ± 0.26** h·kg·L^-1, the CL/F [1, 8] was 10.7 ± 1.83 mL/min/kg and the Cmax [1, 8] was 243 ± 82 nM. The MRT [1, 8] was 4.2 ± 0.5 h and the T max [1, 8] was 1.5 (0.8, 3.0) h.
Work on Cc1ncc2n1-c1ccc(Cl)cc1C(c1ccccc1F)=NC2 [MDZ, midazolam] yielded a Cmax [1, 9] of 206 ± 115 nM, a Tmax [1, 9] of 1.3 h and a CL/F [1, 10] of 18.2 mL/min/kg. For the same compound, the MRT [1, 11] was 4.1 ± 0.7 h, the Cmax [1, 12] was 305 ± 115 nM and the Tmax [1, 12] was 0.8 h. The CL/F [1, 13] was 11.7 mL/min/kg and the MRT [1, 14] was 4.2 ± 0.7 h.
Compound CC(NC(C)(C)C)C(=O)c1cccc(Cl)c1 (centres unmarked) [BUP, Bupropion] has a Cmax [1, 9] of 328 ± 181 nM, a Tmax [1, 9] of 2.1 h and a CL/F [1, 10] of 62.2 mL/min/kg. It also gave an MRT [1, 11] of 6.8 ± 1.9 h, a Cmax [1, 12] of 306 ± 147 nM and a Tmax [1, 12] of 2.5 h. It also gave a CL/F [1, 13] of 63 mL/min/kg and an MRT [1, 14] of 6.1 ± 1.7 h.
In the case of C[C@@H]1CC[C@H]2[C@@H](C)C(=O)O[C@@H]3O[C@@]4(C)CC[C@@H]1[C@]32O4 [DeoxyQHS, Deoxyartemisinin], the “activity at CAR1/3” value (CAR1/3) is listed as “agonist”, the “AUC 0-t /dose” value ([2]; 1-day (first oral dose of QHS-PQ, 1.8 mg/kg QHS plus 10.6 mg/kg piperaquine), 14 healthy Chinese, plasma) is listed as 0.09 ± 0.05** h·kg·L^-1 and the T max ([2]; 1-day oral QHS-PQ, value (range)) is listed as 2.2 (1.25, 4.0) h. For the same compound, the “AUC 0-t /dose” value ([2]; 2-day (second daily oral dose of QHS-PQ)) was 0.06 ± 0.04** h·kg·L^-1, the “Geometric mean ratio (90% CI) of AUC 0-t /dose” value ([2]; 2-day versus 1-day oral QHS-PQ) was 0.68 (0.58, 0.79)** and the “Geometric mean ratio (90% CI) of AUC M /AUC QHS” value ([2]; 2-day versus 1-day oral QHS-PQ) was 1.18 (0.97, 1.43). The “Geometric mean ratio (90% CI) of C max” value ([2]; 2-day versus 1-day oral QHS-PQ) was 0.78 (0.69, 0.89)*, the “Geometric mean ratio (90% CI) of CL/F” value ([2]; 2-day versus 1-day oral QHS-PQ) was 1.68 (1.45, 1.95)** and the “Geometric mean ratio (90% CI) of MRT” value ([2]; 2-day versus 1-day oral QHS-PQ) was 0.89 (0.79, 0.99). The “change of Tmax and MRT after repeated drug dosing” value ([2]; P > 0.05) was “did not change”, the Cmax ([2]; human, po, 1-day oral QHS-PQ) was 71 ± 46.1 nM and the Cmax ([2]; human, po, 2-day oral QHS-PQ) was 55.6 ± 33.3 nM. The MRT ([2]; human, po, 1-day oral QHS-PQ) was 7.1 ± 0.6 h, the MRT ([2]; human, po, 2-day oral QHS-PQ) was 6.2 ± 1.5 h and the Tmax ([2]; human, po, 1-day oral QHS-PQ, value (range)) was 1.3 to 4 h. For the same compound, the Tmax [2, 15] was 2.3 h, the “decrease in AUC 0-t after multiple oral doses” value ([2]; in 13 out of 14 subjects, range 20.3-71.8%) was 34.7% and the “decrease of metabolic capability AUCdeoxy-QHS/AUCQHS after the second dose” value ([2]; in four subjects) was 41.6%. The “increase of metabolic capability AUCdeoxy-QHS/AUCQHS after the second dose” value ([2]; in six subjects) was 1.6 fold, the “increase of CL/F after the second dose” value ([2]; second versus first oral dose of QHS-PQ) was 1.7 fold and the stability in plasma [3] was “stable”. The “activity at PXR” value (PXR) was “agonist”.
In the case of C[C@@H]1CC[C@H]2[C@@H](C)C(=O)O[C@@H]3O[C@@]4(C)CC[C@@H]1[C@]32OO4 [QHS, Artemisinin, reference compound], the “dose-normalized AUC, reported range” value ([4]; healthy subjects and patients who received 500 mg of QHS) is given as 0.06 to 0.31 kg·h/L, the “dose-normalized AUC, reported range” value ([4]; infected children, dose […]) is given as 0.33 to 0.49 kg·h/L and the CL/F ([2]; 1-day oral QHS-PQ, dose/AUC0-t) is given as 164 ± 138 mL/min/kg. For the same compound, the “change of Cmax, Tmax and MRT after repeated drug dosing” value ([2]; P > 0.05) was “did not change”, the “inter-individual variability (%CV) for AUC 0-t” value ([2]; after the first dose, range 6.9-122.7%) was 43.5% and the Cmax ([2]; human, po, 1-day oral QHS-PQ) was 304 ± 192 nM. It also gave a Cmax ([2]; human, po, 2-day oral QHS-PQ) of 221 ± 118 nM, an MRT ([2]; human, po, 1-day oral QHS-PQ) of 3.2 ± 0.9 h and an MRT ([2]; human, po, 2-day oral QHS-PQ) of 2.9 ± 0.9 h. The Tmax [2, 15] was 1.4 h, the CL/F ([2]; human, plasma, po, CL/F, 1-day oral QHS-PQ, dose/AUC0-t) was 163 mL/min/kg and the CL/F ([2]; human, plasma, po, CL/F, 2-day oral QHS-PQ) was 277 mL/min/kg. The “decrease in AUC 0-t, second oral dose compared with the first dose” value ([2]; oral QHS-PQ, two consecutive days) was 35.2% and the stability in plasma [3] was “stable”.
With (±)-hydroxybupropion [OH-BUP] the “Geometric mean ratio (90% CI) of AUC 0-t /dose” value [1] was 2.05 (1.83, 2.30)**, the “Geometric mean ratio (90% CI) of C max” value [1] was 1.65 (1.51, 1.82)** and the “Geometric mean ratio (90% CI) of CL/F” value [1] was 0.49 (0.43, 0.55)**. The “Geometric mean ratio (90% CI) of MRT” value [1] was 1.04 (1.00, 1.07), the “AUC 0-t /dose” value [1, 5] was 3.98 ± 1.45 kg·h/L and the CL/F [1, 6] was 4.83 ± 1.83 mL/min/kg. For the same compound, the Cmax [1, 6] was 518 ± 162 nM, the MRT [1, 6] was 19.4 ± 1.4 h and the T max [1, 6] was 5.2 (3.0, 11.0) h. For the same compound, the “AUC 0-t /dose” value [1, 7] was 8.22 ± 3.43** h·kg·L^-1, the CL/F [1, 8] was 2.33 ± 0.83 mL/min/kg and the Cmax [1, 8] was 857 ± 245 nM. The MRT [1, 8] was 20.2 ± 1.5 h and the T max [1, 8] was 7.6 (3.0, 24.0) h.
